Results reported in patent US4200650A, “2-Amino-cyclopent-1-ene-1-thiocarboxylic acid-disulfides to treat noradrenergic malfunctions” (Richter Gedeon Vegyeszeti Gyar Rt., priority 1976, dated 1980).

How the values were obtained:
[1] = tested on: dopamine-β-hydroxylase; details: literature, cited from earlier work
[2] = tested on: dopamine-β-hydroxylase; test: Determination of the noradrenaline content of heart; format: in vivo, male Wistar rats; details: ± standard error
Procedure: (§1) The dopamine-β-hydroxylase inhibiting effects of the new compounds according to the invention were examined by the following tests:
(§2) The tests were performed on male Wistar rats weighing 150 to 200 g. The dopamine-β-hydroxylase inhibiting effects of the compounds were evaluated by determining the change of noradrenaline, dopamine and adrenaline levels of the cerebrum, heart, spleen and adrenal gland. The serotonine and 5-hydroxy-indolylacetic acid levels of the cerebrum were also determined. The measurements were performed as follows:
(§3) The animals were decapitated, the cerebrum, heart, spleen and adrenal gland were removed quickly, and the organs were frozen by placing them onto a metal sheet cooled with dry ice. The frozen organs were stored for maximum one night at -20° C.
(§4) Determination of the noradrenaline content of heart and spleen
(§5) The organs were weighed in frozen state and then homogenized in 5.0 ml of 0.4 n perchloric acid containing 0.05% of EDTA-Naa and 0.1% of Na2 S2 O5. The homogenized mixtures were centrifuged as described above for the treatment of adrenal gland, the supernatants were decanted, and the pH was adjusted to 8.0±0.1 with a 0.1 molar tris buffer containing 20 g/l of NaOH and 25 g/l of EDTA-Na2. 100 mg of prepared Al2 O3 (Anton et al.: J. Pharm. Ther. 138, 360/1962/) were added to the samples, and the mixtures were shaken mechanically for 20 minutes. Thereafter Al2 O3 was washed with 2×10 ml of distilled water, and noradrenaline was eluted with 1.0 ml of 0.05 n perchloric acid. 0.5 ml samples of the eluate were applied for the determination of noradrenaline. Noradrenaline was determined according to the method of Shellenberger et al. (Anal. Biochem. 39, 356/1971/), with the following modifications of the basic procedure: 0.5 ml of 0.1 molar Na-K-phosphate buffer, containing 9 g/l of EDTA-Na2, were added to 0.5 ml of the eluate, and the catecholamines (noradrenaline in the examination of heart and spleen and noradrenaline and dopamine in the examination of the cerebrum) were oxidized with 0.1 ml of a 0.1 n iodine solution in 5% potassium iodide. After exactly 2 minutes oxidation was stopped by adding 0.25 ml of a 2.5% sodium sulfite solution in 4.4 n aqueous sodium hydroxide to the mixture. 2 minutes after the introduction of the alkaline sulfite solution 0.2 ml of concentrated acetic acid were added to the samples, upon which the pH decreased to 4.4 to 4.5 Thereafter the samples were placed for 5 minutes into a drying oven heated to 100° C., and then the samples were cooled with ice water. The fluorescency of noradrenaline was measured with an OPTON spectrophotometer at wavelengths of 380 nm (excitation) and 490 nm (emission).
(§6) In the tests disulfiram, 2,2-dipyridyl, bis(1-methyl-4-homopiperazinyl-thriocaronyl)-disulfide, sodium diethyldithiocarbamate and N-phenyl-N'-(2-thiazolyl)-thiourea were applied as reference substances. The values indicated in Table 1 are the percentages in relation to the amine levels of the controls measured in the same tests (± standard error). The statistical calculations were performed on a TPA/i type computer, using Student's t test.

[3] = tested on: dopamine-β-hydroxylase; test: Determination of noradrenaline and dopamine levels of brain (dopamine-β-hydroxylase inhibiting effect); format: in vivo, male Wistar rats; details: ± standard error
Procedure: as §1, §2, §3
Determination of the noradrenaline, dopamine, serotonine and 5-hydroxy-indolylacetic acid contents of brain
The brains were homogenized in 10 parts by volume of 0.4 n perchloric acid. The homogenized mixture was stored at -20° C. overnight, thereafter it was thawed and centrifuged as described above. A sample of the homogenized mixture corresponding to 0.5 g of brain was removed, the pH of the sample was adjusted to 8.0±0.1 with 0.1 molar tris-buffer of the above composition, and the sample was processed as described above for the determination of the noradrenaline content of heart and spleen, with the difference that 1.5 ml of 0.05 n perchloric acid were applied as eluting agent. 0.5 ml of the eluate were applied to determine the noradrenaline and dopamine contents. The measurement was performed as described above, with the difference that samples of 0.5 ml were applied for the recording of the fluorescency of noradrenaline. The residua was placed for 50 minutes into a drying oven heated to 100° C., thereafter the sample was cooled with ice water, and the fluorescency of dopamine was recorded at wavelengths of 325 nm (excitation) and 380 nm (emission).
In a further test series the serotonine and 5-hydroxy-indolylacetic acid contents were also determined, beside the determination of the noradrenaline and dopamine content, from the same sample. In this instance the brains were homogenized in 10 ml of 75% ethanol, 0.2 ml of EDTA-Na2 and 5% of ascorbic acid were added to the homogenized mixtures, and the homogenized mixtures were maintained at -20° C. overnight. The mixtures were centrifuged as described above, and 5.0 ml samples of the supernatant were removed. The samples were diluted with equal volumes of distilled water, and poured onto ion exchange columns of 0.5×1.5 cm dimensions, filled with buffered Amberlite CG-30 (200 to 400 mesh). The columns were washed with 5 ml of distilled water followed by 1.0 ml of 0.2 n hydrochloric acid, and the first effluent and the aqueous wash were collected for the determination of 5-hydroxy-indolylacetic acid. Elution was continued with further 1.2 ml of 0.2 n hydrochloric acid in order to remove noradrenaline, dopamine and serotonine. Samples of 0.3 ml were used for the determinations.
Noradrenaline and dopamine were determined by the method of Shellenberger, modified as described above, whereas serotonine was determined by the method of Curzon et al. (Brit. J. Pharmacol. 39, 653/1970/). The basic method was modified as follows: A 0.5% solution of ortho-phthal(di)aldehyde in absolute ethanol was diluted with 10 n hydrochloric acid to 50-fold of its original volume, and 0.6 ml of the resulting 0.01% ortho-phthal(di)aldehyde solution were added immediately to 0.5 ml of the serotonine-containing sample. The sample was placed into a hot water bath for 10 minutes, thereafter cooled with tap water, and the fluorescency was recorded at wavelengths of 360 nm (excitation) and 490 nm (emission).
In the tests disulfiram, 2,2-dipyridyl, bis(1-methyl-4-homopiperazinyl-thriocaronyl)-disulfide, sodium diethyldithiocarbamate and N-phenyl-N'-(2-thiazolyl)-thiourea were applied as reference substances. […]

[4] = tested on: dopamine-β-hydroxylase; test: Determination of the noradrenaline content of spleen; format: in vivo, male Wistar rats
Procedure: as §1, §2, §3, §4, §5, §6

[5] = tested on: dopamine-β-hydroxylase; test: Determination of the adrenaline content of adrenal gland; format: in vivo, male Wistar rats; details: ± standard error
Procedure: as §1, §2, §3
Determination of the adrenaline content of adrenal gland
The adrenal glands were freed from fat and homogenized in 3.0 ml of ice-cold 0.4 n perchloric acid. The homogenized mixtures were centrifuged for 10 minutes at 0° C. with a speed of 3200 r.p.m. using a Janetzky K-70 type centrifuge. 0.05 ml samples were taken from the supernatant, and the adrenaline level was determined directly by the method of Laverty et al. (Anal. Biochem. 22, 269/1968/).
as §6

[6] = i.p., 200 mg/kg, 4 hours, ± standard error
[7] = i.p., 200 mg/kg, 8 hours, ± standard error

CCCCc1ccc(C(=O)O)nc1 [Fusaric acid, 5-butyl-picolinic acid]
dopamine-β-hydroxylase inhibiting effects, in words [1]: strong dopamine-β-hydroxylase inhibiting effects

NNCc1ccccc1 [benzylhydrazine]
dopamine-β-hydroxylase inhibiting effects, in words [1]: exert dopamine-β-hydroxylase inhibiting effects
duration of activity, in words [1]: exert their activities for a short period

O=C(CO)c1coc(=O)c2c(O)cccc12 [Oosponol]
dopamine-β-hydroxylase inhibiting effects, in words [1]: strong dopamine-β-hydroxylase inhibiting effects

Cn1cc[nH]c1=S [methimazol]
dopamine-β-hydroxylase inhibiting effects, in words [1]: possess dopamine-β-hydroxylase inhibiting effects

CN1CCCN(C(=S)SSC(=S)N2CCCN(C)CC2)CC1 [FLA-63, bis(1-methyl-4-homopiperazinyl)-thiocarbonyl-disulfide, reference compound]
Heart NA (noradrenaline) level, percentages in relation to the controls ([2]; i.p., 50 mg/kg, 4 hours): 96%
Brain DA (dopamine) level, percentages in relation to the controls ([3]; i.p., 50 mg/kg, 4 hours): 118%
Brain NA (noradrenaline) level, percentages in relation to the controls ([3]; i.p., 50 mg/kg, 4 hours): 24.6%
Spleen NA (noradrenaline) level, percentages in relation to the controls ([4]; i.p., 50 mg/kg, 4 hours): 58%
Adrenal gland AD (adrenaline) level, percentages in relation to the controls ([5]; i.p., 50 mg/kg, 4 hours): 43%
dopamine-β-hydroxylase inhibition under in vivo conditions, in words ([1]; in vivo): one of the most potent dopamine-β-hydroxylase inhibitors under in vivo conditions

CCN(CC)C(=S)S [diethyl dithiocarbamate]
dopamine-β-hydroxylase inhibiting effects, in words [1]: strong dopamine-β-hydroxylase inhibiting effects

CCNC1=C(C(=S)SSC(=S)C2=C(NCC)CCC2)CCC1 [Compound M-6, 2-(N-ethyl)-amino-cyclopent-1-ene-thiocarboxylic acid-disulfide]
Heart NA (noradrenaline) level, percentages in relation to the controls ([2]; i.p., 100 mg/kg, 4 hours): 92.9±3.3%
Heart NA (noradrenaline) level, percentages in relation to the controls ([2]; i.p., 200 mg/kg, 4 hours): 97.8±8.8%
Heart NA (noradrenaline) level, percentages in relation to the controls ([2]; i.p., 200 mg/kg, 8 hours): 81.3±5.7%
Heart NA (noradrenaline) level, percentages in relation to the controls ([2]; p.o., 500 mg/kg, 4 hours): 82.4±8.2%
Heart NA (noradrenaline) level, percentages in relation to the controls ([2]; p.o., 500 mg/kg, 8 hours): 97.5±5.6%
Brain DA (dopamine) level, percentages in relation to the controls ([3]; i.p., 100 mg/kg, 4 hours): 99.0±5.22%
Brain NA (noradrenaline) level, percentages in relation to the controls ([3]; i.p., 100 mg/kg, 4 hours): 41.8±2.3%
Brain DA (dopamine) level, percentages in relation to the controls ([3]; i.p., 200 mg/kg, 4 hours): 134.9±5.4%
Brain NA (noradrenaline) level, percentages in relation to the controls ([3]; i.p., 200 mg/kg, 4 hours): 34.4±2.6%
Brain DA (dopamine) level, percentages in relation to the controls ([3]; i.p., 200 mg/kg, 8 hours): 121.7±6.1%
Brain NA (noradrenaline) level, percentages in relation to the controls ([3]; i.p., 200 mg/kg, 8 hours): 34.2±3.5%
Brain DA (dopamine) level, percentages in relation to the controls ([3]; p.o., 500 mg/kg, 4 hours): 106.7±3.4%
Brain NA (noradrenaline) level, percentages in relation to the controls ([3]; p.o., 500 mg/kg, 4 hours): 83.9±4.8%
Brain DA (dopamine) level, percentages in relation to the controls ([3]; p.o., 500 mg/kg, 8 hours): 92.6±4.0%
Brain NA (noradrenaline) level, percentages in relation to the controls ([3]; p.o., 500 mg/kg, 8 hours): 73.7±4.7%
Spleen NA (noradrenaline) level, percentages in relation to the controls ([4]; i.p., 100 mg/kg, 4 hours, ± standard error): 64.1±7.6%
Spleen NA (noradrenaline) level, percentages in relation to the controls [4, 6]: 85.0±10.8%
Spleen NA (noradrenaline) level, percentages in relation to the controls [4, 7]: 86.5±23.5%
Spleen NA (noradrenaline) level, percentages in relation to the controls ([4]; p.o., 500 mg/kg, 4 hours, ± standard error): 125.4±12.4%
Spleen NA (noradrenaline) level, percentages in relation to the controls ([4]; p.o., 500 mg/kg, 8 hours, ± standard error): 64.6±12.4%
Adrenal gland AD (adrenaline) level, percentages in relation to the controls ([5]; i.p., 100 mg/kg, 4 hours): 123.4±4.6%
Adrenal gland AD (adrenaline) level, percentages in relation to the controls ([5]; i.p., 200 mg/kg, 4 hours): 97.3±4.1%
Adrenal gland AD (adrenaline) level, percentages in relation to the controls ([5]; i.p., 200 mg/kg, 8 hours): 79.0±3.9%
Adrenal gland AD (adrenaline) level, percentages in relation to the controls ([5]; p.o., 500 mg/kg, 4 hours): 121.4±13.7%
Adrenal gland AD (adrenaline) level, percentages in relation to the controls ([5]; p.o., 500 mg/kg, 8 hours): 107.5±8.9%

CC(N)Cc1ccccc1 (stereo not drawn) [amphetamine]
dopamine-β-hydroxylase inhibiting effects, in words [1]: possess dopamine-β-hydroxylase inhibiting effects

NNc1nncc2ccccc12 [Hydralazine]
dopamine-β-hydroxylase inhibiting effects, in words [1]: possess dopamine-β-hydroxylase inhibiting effects

S=C(SSC(=S)C1=C(NC2CCCCC2)CCC1)C1=C(NC2CCCCC2)CCC1 [Compound M-5, 2-(N-cyclohexyl)-amino-cyclopent-1-ene-thiocarboxylic acid disulfide]
Heart NA (noradrenaline) level, percentages in relation to the controls ([2]; i.p., 200 mg/kg, 4 hours): 94.7±6.8%
Heart NA (noradrenaline) level, percentages in relation to the controls ([2]; i.p., 200 mg/kg, 8 hours): 89.5±3.0%
Brain DA (dopamine) level, percentages in relation to the controls ([3]; i.p., 200 mg/kg, 4 hours): 124.2±4.0%
Brain NA (noradrenaline) level, percentages in relation to the controls ([3]; i.p., 200 mg/kg, 4 hours): 64.6±1.8%
Brain DA (dopamine) level, percentages in relation to the controls ([3]; i.p., 200 mg/kg, 8 hours): 116.2±3.3%
Brain NA (noradrenaline) level, percentages in relation to the controls ([3]; i.p., 200 mg/kg, 8 hours): 76.9±2.2%
Spleen NA (noradrenaline) level, percentages in relation to the controls [4, 6]: 83.2±8.9%
Spleen NA (noradrenaline) level, percentages in relation to the controls [4, 7]: 68.7±6.7%
Adrenal gland AD (adrenaline) level, percentages in relation to the controls ([5]; i.p., 200 mg/kg, 4 hours): 109.0±2.3%
Adrenal gland AD (adrenaline) level, percentages in relation to the controls ([5]; i.p., 200 mg/kg, 8 hours): 105.6±3.3%

NOCc1ccccc1 [benzyloxyamine]
dopamine-β-hydroxylase inhibiting effects, in words [1]: exert dopamine-β-hydroxylase inhibiting effects
duration of activity, in words [1]: exert their activities for a short period
